The results in this text go back to PubChem BioAssay AID1645865 (Buhrlage Lab, Dana-Farber Cancer Institute and Novartis …, 2021).

The structures appear in SMILES notation. The source made the active and inactive calls.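 How the source made its calls: active means maximal inhibition of the USP30 enzyme reaching 30% or more across the dose series; inactive means the rest.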

The target of this experiment is Ubiquitin carboxyl-terminal hydrolase 30 (Homo sapiens) (UniProt Q70CQ3). Nature of the experiment: ubiquitin-specific protease 30 DUB inhibitors, concentration-effect, biochemical, validation of primary actives (AID 1645865). Conditions: purified USP30, Ub-rhodamine cleavage, fluorescence, 2 h.
Ubiquitin carboxyl-terminal hydrolase 30 (Homo sapiens), sequence (Q70CQ3 whole entry, looked up): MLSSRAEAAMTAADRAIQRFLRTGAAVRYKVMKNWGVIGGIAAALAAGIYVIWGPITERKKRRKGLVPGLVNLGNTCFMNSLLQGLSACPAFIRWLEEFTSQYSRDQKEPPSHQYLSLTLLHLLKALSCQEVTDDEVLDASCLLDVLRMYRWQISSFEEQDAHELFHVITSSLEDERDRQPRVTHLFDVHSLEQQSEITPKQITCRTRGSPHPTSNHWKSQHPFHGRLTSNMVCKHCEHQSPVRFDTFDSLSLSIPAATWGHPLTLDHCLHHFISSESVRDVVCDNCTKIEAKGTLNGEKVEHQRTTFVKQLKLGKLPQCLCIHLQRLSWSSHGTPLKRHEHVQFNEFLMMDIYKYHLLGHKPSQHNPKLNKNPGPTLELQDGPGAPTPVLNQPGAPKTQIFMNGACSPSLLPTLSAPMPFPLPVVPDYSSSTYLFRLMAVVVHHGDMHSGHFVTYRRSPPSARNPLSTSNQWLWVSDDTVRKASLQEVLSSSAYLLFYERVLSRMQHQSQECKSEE

With `COc1cc(OC)cc(-n2c(=O)c3sccc3n(CC(=O)c3ccc(F)cc3)c2=O)c1`, the IC50 was 31.3 µM.

As to `CC1=C(c2ccc(F)cc2)S(=O)(=O)NC1=NCC(=O)Nc1ccc(F)cc1`, the 50% inhibitory concentration (IC50) was 21 µM.

Take `Cc1ccccc1C(=O)OCCN1C(=O)c2cccc3c(N4CCCCC4)ccc(c23)C1=O`: the IC50 was > 50 µM (inactive).

Take `CCN(c1ccc(NC(=O)CSc2nnc(-c3ccccc3)n2-c2ccc(OC)c(OC)c2)cc1)C(C)C`: the IC50 was 2.07 µM.

Consider `Cc1ccc(Cl)cc1NC(=O)COC(=O)c1ccc2ccccc2n1`, for which the IC50 is > 50 µM (inactive).

As for `COc1ccc(-n2nnc(C(=O)Nc3ccccc3)c2N)cc1`, the IC50 is > 50 µM (inactive).

In the case of `O=C(Cn1c(=O)n(CCCC(=O)N2CC=C(c3ccccc3)CC2)c(=O)c2ccccc21)NCCC1=CCCCC1`, the IC50 is > 50 µM (inactive).

As to `O=C(/C=C/c1ccccc1)N1CCN(C2=NS(=O)(=O)c3ccccc32)CC1`, the IC50 was > 50 µM (inactive).

For the compound `Cn1c(CCN2CCCC2)nc2cc(NC(=O)c3ccccc3)ccc21`, the IC50 was > 50 µM (inactive).

For `O=C(CSc1cn(Cc2ccccc2)c2ccccc12)Nc1ccc2c(c1)OCCO2`, the IC50 is > 50 µM (inactive).

Turning to `COc1ccc(C)cc1NC(=O)C(NS(=O)(=O)c1ccc2c(c1)CCN2C(C)=O)C(C)C` (stereo not drawn), the IC50 was > 50 µM (inactive).

As to `Cc1ccc2c(c1C)NC(=O)[C@]21[C@@H]2C(=O)N(c3cccc(Cl)c3)C(=O)[C@@H]2[C@@H]2CCCN21`, the IC50 is > 50 µM (inactive).

On to `O=C(O)Cc1ccc(Nc2nc3ccccc3n3nnnc23)cc1`, for which the IC50 is > 50 µM (inactive).

For the compound `Cc1ccc(C(=O)Nc2cc3c4c(c2)CC(=O)N4CCC3)cc1C`, the IC50 was > 50 µM (inactive).

Regarding `O=C(NCc1cccc(NC(=O)C2CC2)c1)Nc1cccc2ccccc12`, the IC50 was 21.7 µM.

Regarding `CC1(C)Cc2c(sc3nc(Cc4ccccc4)nc(SCC(=O)Nc4ccccc4)c23)CO1`, the half-maximal inhibitory concentration (IC50) is 1.82 µM.

As for `COc1cccc2c1OCC(NS(=O)(=O)c1cc(C)ccc1C)C2` (stereo not drawn), the IC50 was > 50 µM (inactive).

Consider `COc1cc(-c2ccno2)ccc1S(=O)(=O)Nc1ccccc1Cl`, for which the IC50 was > 50 µM (inactive).

Consider `O=C(Nc1ccc2c(c1)OCCO2)Nc1nnc(CC(=O)N2CCCCC2)s1`, for which the IC50 is > 50 µM (inactive).

Turning to `Cn1c(=O)c2c(nc3n(-c4ccccc4F)c(-c4ccccc4)cn23)n(C)c1=O`, the IC50 was > 50 µM (inactive).

Take `COc1ccc(C2SCC(=O)Nc3c2c(=O)[nH]n3C2CCCCCC2)cc1` (stereo not drawn): the IC50 was 23.8 µM.

Consider `O=C(Nc1cc(Cl)cc(Cl)c1)c1csnn1`, for which the concentration for half-maximal inhibition (IC50) was 16 µM.

With `O=C1c2c(O)c(Cl)cc3c2[C@@]2(Oc4cc(Cl)c(O)c5c4[C@]3(O2)[C@@H]2O[C@@H]2C5=O)[C@@H]2O[C@H]12`, the IC50 was 1.1 µM.

Consider `CC(=O)O[C@H]1[C@]2(O)C[C@]34SS[C@](CO)(C(=O)N3[C@@H]2C[C@@]12O[C@@H](C)C(C)(C)C2=O)N(C)C4=O`, for which the IC50 was 2.25 µM.

Turning to `O=C(c1cccnc1)N1CCC2(CC1)CC1(CO2)Nc2ccccc2-n2cccc21` (stereo not drawn), the IC50 was > 50 µM (inactive).

Take `Cc1ccccc1Cn1ccc2ccn(Cc3cccnc3)c2c1=O`: the IC50 is > 50 µM (inactive).

For `COc1cnc(-c2ccccn2)nc1Sc1ccc(C)cc1`, the IC50 was 25.7 µM.

In the case of `COc1cccc(CCNC(=O)CCn2c(=O)c(C)nc3cc(C)c(C)cc32)c1`, the IC50 was > 50 µM (inactive).

Take `COc1c2n(c3ccccc13)[C@@]1(O)C(=O)N(C)C(=O)[C@@]1(O)c1c-2n(C)c2ccc(Cl)cc12`: the IC50 was > 50 µM (inactive).

In the case of `CCc1ccc(NC(=O)CN=C2NS(=O)(=O)C(c3ccc(CC)cc3)=C2C)cc1`, the IC50 was 4.67 µM.

Take `COc1ccc(NC2c3ccccc3C(=O)N2c2ccccn2)cc1` (stereo not drawn): the IC50 is > 50 µM (inactive).

Consider `N#Cc1cccc(S(=O)(=O)N2CCc3nc4ccccc4n3CC2)c1`, for which the IC50 is 20.3 µM.

Turning to `O=C(Nc1ccc2c(c1)OCO2)c1[nH]nc2c1CCc1ccccc1-2`, the IC50 was > 50 µM (inactive).

In the case of `CCOc1ccc(-n2c(C)cc(/C=C(\C#N)c3nc4ccccc4[nH]3)c2C)cc1`, the IC50 was > 50 µM (inactive).

With `CC(OC(=O)c1c2c(nc3ccccc13)CCCCC2)C(=O)Nc1ccc2ccccc2c1` (stereo not drawn), the 50% inhibitory concentration (IC50) is 2.65 µM.

Take `Cc1ccc(-n2cc(C(=O)NCc3cccnc3)nn2)cc1C`: the IC50 was 21.6 µM.

On to `Cc1cc(Nc2ccc(C(=O)NCc3ccco3)cc2)n2nc(-c3cccnc3)nc2n1`, for which the IC50 is > 50 µM (inactive).

Consider `Cc1ccc(C(=O)Nc2ccc3nccnc3c2)cc1`, for which the IC50 was 34.3 µM.

For the compound `CN1CCN(c2ccc3nc(-c4ccccc4)c(-c4ccccc4)nc3c2)CC1`, the IC50 is > 50 µM (inactive).

Consider `Cc1ccccc1NC(=O)c1ccn(COc2ccc(Cl)cc2)n1`, for which the IC50 was > 50 µM (inactive).

In the case of `Cc1cc(C)c2c(-n3cccc3)c(C(=O)NCCc3ccc(S(N)(=O)=O)cc3)sc2n1`, the IC50 was > 50 µM (inactive).

Regarding `CC(C)c1cc2c(c(O)c1O)[C@@]13CCCC(C)(C)[C@@H]1C[C@@H]2OC3=O`, the half-maximal inhibitory concentration (IC50) is 26.6 µM.

`Cc1cc(=O)n(CC(=O)NCc2ccccc2F)c2c1c(C)nn2-c1ccccc1`: the IC50 is 32.7 µM.

As to `C=C1CCC2[C@](C)(CCC[C@]2(C)C(=O)OC)[C@H]1CCc1ccoc1CNC(C)C` (stereo partly drawn), the IC50 was > 50 µM (inactive).

`CCC1=C(c2ccc(C)cc2)S(=O)(=O)NC1=NCC(=O)NCc1ccccc1F`: the IC50 was > 50 µM (inactive).

For `Cc1ccc(C)c(NC(=O)CCc2nc(CSc3nc4ccccc4o3)no2)c1`, the IC50 is 23.8 µM.

For `CC(=O)NCc1nc(-c2ccc3c(c2)nc(C)c(=O)n3C2CCCC2)no1`, the IC50 is > 50 µM (inactive).

Regarding `CC(C)C(=O)Nc1ccc(N2CCN(Cc3ccc(F)cc3)C2=O)nc1`, the IC50 was 37.6 µM.

Regarding `COc1ccc(-c2cc(-c3ccccc3)nc(SCC(N)=O)c2C#N)cc1OC`, the concentration for half-maximal inhibition (IC50) is 1.59 µM.

`C=C(NC(=O)C(=C)NC(=O)c1csc(C2=N[C@@H]3c4csc(n4)[C@H]4NC(=O)c5csc(n5)[C@H]([C@](C)(O)[C@@H](C)O)NC(=O)C5CSC(=N5)/C(=C/C)NC(=O)C([C@@H](C)O)NC(=O)c5csc(n5)[C@]3(CC2)NC(=O)[C@H](C)NC(=O)C(=C)NC(=O)[C@H](C)NC(=O)C([C@@H](C)CC)NC2C=Cc3c(C(C)O)cc(nc3[C@H]2O)C(=O)OC4C)n1)C(N)=O` (stereo partly drawn): the IC50 is > 50 µM (inactive).

For `O=C(Cn1c(=O)n(Cc2ccc(F)cc2)c(=O)c2sccc21)Nc1cccc(Cl)c1`, the IC50 was 4.47 µM.

In the case of `NS(=O)(=O)c1cc(C(=O)OCC(=O)c2ccc3c(c2)OCCO3)ccc1Cl`, the IC50 is > 50 µM (inactive).

Turning to `CCCc1nc2sc3c(NCCc4ccc(OC)c(OC)c4)ncnc3c2c2c1CCC2`, the IC50 is > 50 µM (inactive).

Take `CC(=O)c1cccc(NC(=O)c2ccc(CN(c3ccc(C)c(C)c3)S(C)(=O)=O)cc2)c1`: the IC50 is > 50 µM (inactive).

Turning to `O=C(Nc1ccc(Oc2cccc3cccnc23)cc1)c1cccs1`, the IC50 was > 50 µM (inactive).

`COc1ccc2c(c1)CCc1c-2n[nH]c1C(=O)Nc1cc(C)on1`: the IC50 is 4.04 µM.

Take `CC(OC(=O)CNC(=O)c1ccc(Br)cc1)C(=O)Nc1ccc2c(c1)OCCO2` (stereo not drawn): the IC50 is 28 µM.

For the compound `CCOCCCn1c(SCC(=O)Nc2ccccc2C(F)(F)F)nc2ccccc2c1=O`, the IC50 was 17.1 µM.

For the compound `O=C(c1ccc(N2CCc3ccccc32)nn1)N1CCc2ccccc21`, the IC50 is > 50 µM (inactive).

Take `O=C1C=CC(O)C2C1CC13SSC4(CC5C(=O)C=CC(O)C5N4C1=O)C(=O)N23` (stereo not drawn): the half-maximal inhibitory concentration (IC50) was 1 µM.

As to `Fc1ccc(-c2noc(-c3nnc(NCc4cccnc4)c4ccccc34)n2)cc1`, the 50% inhibitory concentration (IC50) is 1.92 µM.

Regarding `O=C(CCC1CCCCC1)Nc1ccccc1C(=O)N1CCOCC1`, the IC50 is > 50 µM (inactive).

Turning to `CCOc1ccc(-c2noc(-c3nn(-c4cccc(OC)c4)ccc3=O)n2)cc1`, the IC50 was 3.45 µM.

Regarding `COc1ccc(C)cc1NC(=O)COc1ccc2c(c1)OCO2`, the IC50 is > 50 µM (inactive).

As for `O=C(NC1CCN(Cc2ccccc2)CC1)c1[nH]nc2c1CCc1ccccc1-2`, the IC50 was > 50 µM (inactive).

Turning to `O=C(C(c1ccccc1)c1ccccc1)N1CCC(c2nc3c(nnn3Cc3c(F)cccc3Cl)c(=O)[nH]2)CC1`, the 50% inhibitory concentration (IC50) was 11.5 µM.

As to `CC1=C[C@@H](C)CC[C@H]2O[C@@H](C3=C(O)C(=O)C(C)=C4O[C@](O)(C=C43)[C@@H](C)C[C@H](C)C1)[C@H](C)[C@@H](O)[C@H]2C`, the concentration for half-maximal inhibition (IC50) is 22.2 µM.

On to `O=C(Nc1cccc(-c2nc3ccccc3[nH]2)c1)c1cc2ccccc2oc1=O`, for which the half-maximal inhibitory concentration (IC50) was 0.304 µM.

`O=C1c2c(O)cccc2C2(Oc3cccc4cccc(c34)O2)C2OC12` (stereo not drawn): the half-maximal inhibitory concentration (IC50) was 31.8 µM.

In the case of `COc1ccccc1OCC(=O)Nc1ccc2c(c1)CCC(=O)N2Cc1ccccc1`, the IC50 is > 50 µM (inactive).

Take `Cc1cc(C2CC(=O)Nc3c2c(C)nn3-c2nc3ccccc3[nH]2)c(C)s1` (stereo not drawn): the IC50 is 26.5 µM.

For the compound `Cc1c2c(nc3ccccc13)-c1ccccc1CC2`, the IC50 was > 50 µM (inactive).

Turning to `CN1CCN(c2ncnc3c2oc2ccc(Cl)cc23)CC1`, the IC50 is > 50 µM (inactive).

Regarding `O=C(c1ccc(Cl)cc1)c1c[nH]cc1-c1c(F)cccc1Cl`, the IC50 was 19 µM.

Take `COc1ccc(Cl)cc1NC(=O)Cn1c(=O)cc(C)c2c(C)nn(-c3ccccc3)c21`: the 50% inhibitory concentration (IC50) was 1.99 µM.

Regarding `O=C(/C=C/c1ccco1)c1cccc([N+](=O)[O-])c1`, the IC50 was 40.1 µM.

For `COc1ccc(-c2cnnn2-c2ccc(NC(=O)c3c(F)cccc3F)cc2)cc1OC`, the IC50 was > 50 µM (inactive).

In the case of `Cc1cccc(-n2cnc(C(=O)NCc3ccc(F)cc3)c2)n1`, the IC50 is 44.9 µM.

In the case of `COc1ccc(CNC(=O)c2ccccc2N2C(=O)N3CCc4c([nH]c5ccccc45)[C@@]3(C)C2=O)cc1`, the 50% inhibitory concentration (IC50) was 27.3 µM.

In the case of `O=C(NCc1cccnc1)c1cnn2c(C(F)(F)F)cc(-c3ccccc3)nc12`, the IC50 is > 50 µM (inactive).

Regarding `CCn1ccc2c(cc(C(=O)Nc3cccc(OC)c3)n2C)c1=O`, the IC50 was > 50 µM (inactive).

Take `COc1ccc(NC(=O)C2CC(=O)Nc3cc(-c4ccccc4)nn32)cc1` (stereo not drawn): the IC50 was 22.5 µM.

As for `COc1ccc2nc(SCC(=O)Nc3ccc(NC(C)=O)cc3)c(C)cc2c1`, the concentration for half-maximal inhibition (IC50) was 4.95 µM.
